The source of these data is US20240294499A1, “TARGETED PROTEIN DEGRADATION USING BIFUNCTIONAL COMPOUNDS THAT BIND UBIQUITIN LIGASE AND TARGET MCL-1 PROTEIN” (Captor Therapeutics S.A., priority 2021, published 2024).

SMILES strings stand for the structures. Where only a bound is given, the exact number is not on record here.

One assay deals with ARH-77 cells. As to the kind of experiment: Cell viability assay (CellTiter-Glo), ARH-77. The following applies: Homo sapiens, ARH-77, 24 hours incubation, 1% FBS, read-out: Average pIC50 by molecule ARH-77 (converted). It is filed as cell-based. An excerpt:
(§1) The effect of various compounds of the invention on the viability of OPM-2, MV-4-11 and ARH-77 cell lines was investigated, using the CTG protocol described below.
(§2) OPM-2 and MV-4-11 cell lines are derived from multiple myeloma and acute myeloid leukaemia, respectively. Both cell lines are described in the literature as MCL-1 dependent lines, as opposed to lymphoblast-like ARH-77 cell line, which is described as independent of MCL-1 (Tron A E et al. Nat Commun. 2018; 9: 5341; Caenepeel S et al. Cancer Discov. 2018 December; 8(12):1582-1597).
(§3) Cells (OPM-2, MV-4-11 or ARH-77) were seeded on […] in a growth medium with FBS reduced to 1%. Next, compound stocks were pre-diluted in DMSO and added directly to the cells growth medium (final DMSO concentration: 0.5%). Compound concentrations used in this assay: 1/3 dilutions starting at 30 uM (9 to 12 points).
(§4) After 24 hours of incubation, cell viability was evaluated using CellTiter-Glo Luminescent Cell Viability Assay (Promega, cat #G7572). Luminescence signal was measured using a CLARIOstar Plus Multi-Mode Microplate Reader (574-590 nm).
(§5) Results were normalized to DMSO control.
For orientation: ATP-based viability assays read luminescence as a measure of living cells.

In a further assay the test system is MV-4-11 cells. As to the kind of experiment: Cell viability assay (CellTiter-Glo), MV-4-11. The following applies: Homo sapiens, MV4-11, 24 hours incubation, 1% FBS, read-out: Average pIC50 by molecule MV-4-11 (converted). Type of assay: cell-based.
Source text: as §1, §2, §3, §4, §5

The target of assay [1] is [MCL-1]-[compound of formula (I)]-[CRBN/DDB1] complex (Homo sapiens, UniProt Q07820+Q96SW2). As to the kind of experiment: AlphaLISA dose response ternary complex formation assay. Type of assay: binding. The following applies: read-out: AlphaLISA dose response Average pEC50 by molecule (converted). Here is the method:
The effect of the bifunctional compounds of the invention on the formation of a ternary complex composed of [MCL-1]-[compound of formula (I)]-[CRBN/DDB1] was investigated with two methods: AlphaLISA dose response assay or HTRF ternary complex assay.
Two types of protein solution were prepared: • 40 nM biotinylated hMCL-1, 40 μg/ml AlphaScreen Streptavidin-coated Donor Beads in PBS buffer with 0.1% Tween-20 and 1 mM DTT, • 200 nM 6×His-CRBN/Strep-DDB1, 40 μg/ml AlphaLISA Anti-6×His Acceptor beads in PBS buffer with 0.1% Tween-20 and 1 mM DTT.
The prepared solutions were incubated at room temperature for 45 min and then the solution containing the donor beads was mixed with the solution containing the acceptor beads.
The tested compounds were dispensed onto a white 384-well AlphaPlate 384 SW. DMSO was backfilled to all wells, resulting in a final DMSO content of 2%. Wells containing only DMSO served as background. Next, 10 μl of solution with donor and acceptor beads was added to the wells.
The plate was sealed with transparent film and shaken using a VibroTurbulator for 60 see at room temperature, level 3. The plate was then spun down shortly (10 s, 1000 rcf, room temperature) and incubated at 25° C. for 30 min.
The read-out was performed with PerkinElmer Enspire Multimode Plate Reader (method for AlphaLISA 384-well low volume, Filterset: λexc=680 nm, λem=615 nm).
The results were analyzed as follows: • 1) an average of luminescence for background signal was calculated and used as a negative control; • 2) average of the maximum measured luminescence for 233 was calculated and used as an internal positive control; • 3) raw luminescence values were normalized against positive and negative controls; • 4) concentration points above the hook point were excluded; • 5) EC50 and pEC50 values were determined.
A general note: Alpha assays give light when donor and acceptor beads are brought close together.

Sequence of [MCL-1]-[compound of formula (I)]-[CRBN/DDB1] complex (Q07820 whole entry): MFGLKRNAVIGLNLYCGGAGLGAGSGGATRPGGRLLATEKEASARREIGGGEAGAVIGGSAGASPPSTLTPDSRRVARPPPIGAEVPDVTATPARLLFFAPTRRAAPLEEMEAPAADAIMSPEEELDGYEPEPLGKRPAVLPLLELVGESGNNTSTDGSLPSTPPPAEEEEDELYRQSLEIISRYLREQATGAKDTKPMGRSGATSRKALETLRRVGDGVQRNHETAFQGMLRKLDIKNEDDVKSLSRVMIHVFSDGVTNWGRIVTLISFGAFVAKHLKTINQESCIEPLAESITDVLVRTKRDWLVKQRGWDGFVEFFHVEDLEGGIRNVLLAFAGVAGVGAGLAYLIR
Sequence of [MCL-1]-[compound of formula (I)]-[CRBN/DDB1] complex (Q96SW2 whole entry): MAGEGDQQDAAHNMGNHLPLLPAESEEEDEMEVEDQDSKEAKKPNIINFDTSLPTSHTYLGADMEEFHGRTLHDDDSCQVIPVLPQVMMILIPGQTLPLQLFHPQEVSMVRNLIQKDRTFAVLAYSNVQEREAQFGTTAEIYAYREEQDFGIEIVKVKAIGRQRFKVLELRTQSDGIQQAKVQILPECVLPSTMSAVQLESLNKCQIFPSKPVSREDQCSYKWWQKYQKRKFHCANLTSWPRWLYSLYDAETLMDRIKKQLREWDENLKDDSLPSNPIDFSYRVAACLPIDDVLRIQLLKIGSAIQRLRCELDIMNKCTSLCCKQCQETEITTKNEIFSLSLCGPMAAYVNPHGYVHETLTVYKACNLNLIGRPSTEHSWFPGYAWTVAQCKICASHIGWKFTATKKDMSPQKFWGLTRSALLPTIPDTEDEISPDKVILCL
Sequence of [MCL-1]-[compound of formula (I)]-[CRBN/DDB1] complex (Q16531 whole entry partner): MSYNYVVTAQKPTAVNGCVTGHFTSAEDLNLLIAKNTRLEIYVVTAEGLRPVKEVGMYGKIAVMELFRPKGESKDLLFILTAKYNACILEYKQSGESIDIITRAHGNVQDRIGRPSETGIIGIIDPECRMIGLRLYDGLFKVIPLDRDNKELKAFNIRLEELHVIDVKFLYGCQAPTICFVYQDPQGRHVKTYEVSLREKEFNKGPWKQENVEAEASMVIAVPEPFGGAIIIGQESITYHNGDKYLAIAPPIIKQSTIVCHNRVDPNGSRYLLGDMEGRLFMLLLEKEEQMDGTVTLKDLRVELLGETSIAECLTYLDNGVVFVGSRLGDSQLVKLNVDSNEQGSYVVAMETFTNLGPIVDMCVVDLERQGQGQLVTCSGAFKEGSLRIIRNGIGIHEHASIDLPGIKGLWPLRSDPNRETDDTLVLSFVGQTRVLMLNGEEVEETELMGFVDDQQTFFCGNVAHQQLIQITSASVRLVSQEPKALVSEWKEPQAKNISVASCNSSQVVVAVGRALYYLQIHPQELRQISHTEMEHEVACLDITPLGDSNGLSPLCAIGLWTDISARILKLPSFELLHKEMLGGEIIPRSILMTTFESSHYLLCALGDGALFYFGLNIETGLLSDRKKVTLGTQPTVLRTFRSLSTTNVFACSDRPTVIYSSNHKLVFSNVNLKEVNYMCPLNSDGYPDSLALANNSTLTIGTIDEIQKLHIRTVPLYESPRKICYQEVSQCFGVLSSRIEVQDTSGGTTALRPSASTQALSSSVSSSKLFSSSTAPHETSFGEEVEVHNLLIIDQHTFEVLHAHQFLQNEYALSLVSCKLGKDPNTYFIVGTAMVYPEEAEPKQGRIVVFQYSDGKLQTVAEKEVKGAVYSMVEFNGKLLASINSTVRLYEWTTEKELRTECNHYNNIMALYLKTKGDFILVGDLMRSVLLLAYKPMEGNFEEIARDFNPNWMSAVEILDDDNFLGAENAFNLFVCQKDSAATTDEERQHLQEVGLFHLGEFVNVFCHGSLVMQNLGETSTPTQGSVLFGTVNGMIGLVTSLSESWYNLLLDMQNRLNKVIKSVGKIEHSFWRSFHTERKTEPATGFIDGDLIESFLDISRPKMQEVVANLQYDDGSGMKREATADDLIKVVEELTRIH

`Cc1nn(C)c(C)c1-c1c(Cl)ccc2c(CCCOc3cccc4ccccc34)c(C(=O)O)n(CC[N+]3([O-])CCN(C(=O)COc4cccc5c4CN(C4CCC(=O)NC4=O)C5=O)CC3)c12` (stereo not drawn) [Compound 224, 1-(2-(2-carboxy-6-chloro-3-(3-(naphthalen-1-yloxy)propyl)-7-(1,3,5-trimethyl-1H-pyrazol-4-yl)-1H-indol-1-yl)ethyl)-4-(2-((2-(2,6-dioxopiperidin-3-yl)-1-oxoisoindolin-4-yl)oxy)acetyl)piperazine 1-oxide]: the results for the IC50 with ARH-77 cells and in the assay on MV-4-11 cells were above 10 µM and at most 0.316 µM, respectively. The EC50 in assay [1] is below 0.1 µM.
With `Cc1nn2c(c1-c1c(F)ccc3c(CCCOc4cccc5cc(F)ccc45)c(C(=O)O)n(CCN4CCN(C(=O)COc5cccc6c5CN(C5CCC(=O)NC5=O)C6=O)CC4)c13)CCC2` (stereo not drawn) [Compound 225, 1-(2-(4-(2-((2-(2,6-dioxopiperidin-3-yl)-1-oxoisoindolin-4-yl)oxy)acetyl)piperazin-1-yl)ethyl)-6-fluoro-3-(3-((6-fluoronaphthalen-1-yl)oxy)propyl)-7-(2-methyl-5,6-dihydro-4H-pyrrolo[1,2-b]pyrazol-3-yl)-1H-indole-2-carboxylic acid], the IC50 in the assay with ARH-77 cells is above 10 µM; in the assay with MV-4-11 cells it was at most 0.316 µM. Further, the EC50 in assay [1] is below 0.1 µM.
The like results for `Cc1nn2c(c1-c1c(F)ccc3c(CCCOc4cccc5cc(F)ccc45)c(C(=O)O)n(CCN4CCN(C(=O)COc5cccc6c5CN(C5CCC(=O)NC5=O)C6=O)CC4)c13)COCC2` (stereo not drawn) [Compound 226, 1-{2-[4-(2-{[2-(2,6-dioxopiperidin-3-yl)-1-oxo-2,3-dihydro-1H-isoindol-4-yl]oxy}acetyl)piperazin-1-yl]ethyl}-6-fluoro-3-{3-[(6-fluoronaphthalen-1-yl)oxy]propyl}-7-{2-methyl-4H,6H,7H-pyrazolo[3,2-c][1,4]oxazin-3-yl}-1H-indole-2-carboxylic acid] were, in that order, above 10 µM, at most 0.1 µM and below 0.1 µM.
On to `Cc1nn(C)c(C)c1-c1c(Cl)ccc2c(CCCOc3cccc4cc(F)ccc34)c(C(=O)O)n(CCN3CCN(C(=O)Cn4c(C)nc5c(C(=O)NC6CCC(=O)NC6=O)ccc(Cl)c54)CC3)c12` (stereo not drawn) [Compound 271, 6-Chloro-1-(2-(4-(2-(7-chloro-4-((2,6-dioxopiperidin-3-yl)carbamoyl)-2-methyl-1H-benzo[d]imidazol-1-yl)acetyl)piperazin-1-yl)ethyl)-3-(3-((6-fluoronaphthalen-1-yl)oxy)propyl)-7-(1,3,5-trimethyl-1H-pyrazol-4-yl)-1H-indole-2-carboxylic acid], for which the results for the IC50 with ARH-77 cells and in the assay on MV-4-11 cells were above 10 µM and at most 0.1 µM, respectively. Further, the EC50 in assay [1] was below 0.1 µM.
The like results for `COc1ccc(C(=O)NC2CCC(=O)NC2=O)c2nc(C)n(CC(=O)N3CCN(CCn4c(C(=O)O)c(CCCOc5cccc6cc(F)ccc56)c5ccc(Cl)c(-c6c(C)nn(C)c6C)c54)CC3)c12` (stereo not drawn) [Compound 272, 6-Chloro-1-(2-(4-(2-(4-((2,6-dioxopiperidin-3-yl)carbamoyl)-7-methoxy-2-methyl-1H-benzo[d]imidazol-1-yl)acetyl)piperazin-1-yl)ethyl)-3-(3-((6-fluoronaphthalen-1-yl)oxy)propyl)-7-(1,3,5-trimethyl-1H-pyrazol-4-yl)-1H-indole-2-carboxylic acid] were, in that order, above 10 µM, at most 0.1 µM and below 0.1 µM.
The like results for `Cc1nn(C)c(C)c1-c1c(Cl)ccc2c(CCCOc3cccc4cc(F)ccc34)c(C(=O)O)n(CCN3CCN(C(=O)Cn4c(C)nc5c(C(=O)NC6CCC(=O)NC6=O)cc(Br)cc54)CC3)c12` (stereo not drawn) [Compound 273, 1-{2-[4-(2-{6-Bromo-4-[(2,6-dioxopiperidin-3-yl)carbamoyl]-2-methyl-1H-1,3-benzodiazol-1-yl}acetyl)piperazin-1-yl]ethyl}-6-chloro-3-{3-[(6-fluoronaphthalen-1-yl)oxy]propyl}-7-(1,3,5-trimethyl-1H-pyrazol-4-yl)-1H-indole-2-carboxylic acid] were, in that order, above 10 µM, at most 0.316 µM and below 0.01 µM.
As to `Cc1cc(C(=O)NC2CCC(=O)NC2=O)c2nc(C)n(CC(=O)N3CCN(CCn4c(C(=O)O)c(CCCOc5cccc6cc(F)ccc56)c5ccc(Cl)c(-c6c(C)nn(C)c6C)c54)CC3)c2c1` (stereo not drawn) [Compound 274, 6-Chloro-1-(2-(4-(2-(4-((2,6-dioxopiperidin-3-yl)carbamoyl)-2,6-dimethyl-1H-benzo[d]imidazol-1-yl)acetyl)piperazin-1-yl)ethyl)-3-(3-((6-fluoronaphthalen-1-yl)oxy)propyl)-7-(1,3,5-trimethyl-1H-pyrazol-4-yl)-1H-indole-2-carboxylic acid], the IC50 with ARH-77 cells is above 10 µM; with MV-4-11 cells it was at most 0.1 µM. In addition, the EC50 in assay [1] was below 0.01 µM.
For `Cc1nn(C)c(C)c1-c1c(Cl)ccc2c(CCCOc3cccc4cc(F)ccc34)c(C(=O)O)n(CCN3CCN(C(=O)Cn4c(C)nc5c(C(=O)NC6CCC(=O)NC6=O)cc(Cl)cc54)CC3)c12` (stereo not drawn) [Compound 276, 6-Chloro-1-(2-(4-(2-(6-chloro-4-((2,6-dioxopiperidin-3-yl)carbamoyl)-2-methyl-1H-benzo[d]imidazol-1-yl)acetyl)piperazin-1-yl)ethyl)-3-(3-((6-fluoronaphthalen-1-yl)oxy)propyl)-7-(1,3,5-trimethyl-1H-pyrazol-4-yl)-1H-indole-2-carboxylic acid], the IC50 in the assay with ARH-77 cells is above 10 µM; in the assay with MV-4-11 cells it was at most 0.1 µM. The EC50 in assay [1] is below 0.1 µM.
In the same order, the values of `Cc1nc2c(NCC(=O)N3CCN(CCn4c(C(=O)O)c(CCCOc5cccc6cc(F)ccc56)c5ccc(Cl)c(-c6c(C)nn(C)c6C)c54)CC3)cccc2cc1C1CCC(=O)NC1=O` (stereo not drawn) [Compound 284, 6-Chloro-1-{2-[4-(2-{[3-(2,6-dioxopiperidin-3-yl)-2-methylquinolin-8-yl]amino}acetyl)piperazin-1-yl]ethyl}-3-{3-[(6-fluoronaphthalen-1-yl)oxy]propyl}-7-(1,3,5-trimethyl-1H-pyrazol-4-yl)-1H-indole-2-carboxylic acid] are above 3.16 µM, at most 0.1 µM and below 0.1 µM.
The like results for `Cc1nn(C)c(C)c1-c1c(Cl)ccc2c(CCCOc3cccc4ccccc34)c(C(=O)O)n(CCN3CCN(C(=O)COc4cccc5c4CN(C4CCC(=O)NC4=O)C5=O)CC34CC4)c12` (stereo not drawn) [Compound 292, 6-Chloro-1-(2-(7-(2-((2-(2,6-dioxopiperidin-3-yl)-1-oxoisoindolin-4-yl)oxy)acetyl)-4,7-diazaspiro[2.5]octan-4-yl)ethyl)-3-(3-(naphthalen-1-yloxy)propyl)-7-(1,3,5-trimethyl-1H-pyrazol-4-yl)-1H-indole-2-carboxylic acid] were, in that order, above 10 µM, at most 0.1 µM and below 0.01 µM.
Turning to `Cc1nn(C)c(C)c1-c1c(Cl)ccc2c(CCCOc3cccc4cc(F)ccc34)c(C(=O)O)n(CCN3CCC4CN(C(=O)CNc5cccc6c5C(=O)N(C5CCC(=O)NC5=O)C6=O)CC43)c12` (stereo not drawn) [Compound 300, 6-Chloro-1-(2-(5-((2-(2,6-dioxopiperidin-3-yl)-1,3-dioxoisoindolin-4-yl)glycyl)hexahydropyrrolo[3,4-b]pyrrol-1(2H)-yl)ethyl)-3-(3-((6-fluoronaphthalen-1-yl)oxy)propyl)-7-(1,3,5-trimethyl-1H-pyrazol-4-yl)-1H-indole-2-carboxylic acid], the values for the IC50 in the assay with ARH-77 cells and in the assay on MV-4-11 cells were above 3.16 µM and at most 0.1 µM, respectively. In assay [1], the EC50 was below 0.01 µM.
